Test results: patent US20100119612A1, “NANOPARTICLES COMPRISING NON-CRYSTALLINE DRUG” (Bend Research, Inc, priority 2007, published 2010)
In brackets after ≈: the same amount, converted by molar mass.

Experiments:
[1] = Measurement of free drug by 19F NMR; assay type: physicochemical; details: after 120 minutes; deuterated PBS with 2.0 wt % NaTC/POPC; 37° C.; 1000 μg/mL Drug 1 if all dissolved
Experimental: Alternatively, free drug for a nanoparticle suspension can be measured with nuclear magnetic resonance (NMR). In this method, the nanoparticles are equilibrated in an NMR tube with a buffered deuterium oxide solution. A specified amount of a reference standard is also added to the sample, such that the final concentration of the standard in the tube is known. An NMR spectrum is then acquired, and the integration of the drug peak(s) is compared to that of the reference standard to determine the actual dissolved drug concentration. Depending on the drug, either proton NMR (in which case a suitable reference standard is deuterated trimethylsilyl propionic acid) or fluorine NMR (in which case a suitable reference standard is trifiuoroacetic acid) may be employed. Because NMR is sensitive only to materials in the solution state or in micelles, only the drug that is not sequestered in nanopartides is measured by this method.
The solution was mixed, and an ^19F internal standard solution of trifluoroacetic acid (TFA) was added. […] This solution was vortexed 1 minute, and then carefully transferred to an 8 mm glass NMR tube.
Fluorine spectra of the sample was recorded at 282.327 MHz on a Varian Gemini 2000, 300 MHz NMR equipped with a Nalorac 8 mm indirect detection probe. […] Drug resonances were integrated relative to the internal standard peak and the drug concentration determined. […]

[2] = In vivo evaluation in dogs (Example 2, oral suspension, plasma LC/MS/MS); set-up: species or system male beagle dogs; details: fasted dogs, oral gavage, approx. 50 mL of 1.2 mgA/mL suspension
Experimental: The nanoparticles of Example 2 were evaluated in vivo in dogs. Samples were dosed orally as a suspension to 6 male beagle dogs.
Animals were fasted overnight (at least 10 hours predose) through 8 hours postdose. Approximately 50 mL of suspension (1.2 mgA/mL) was administered to each dog via oral gavage, followed by approximately 5 mL water. Whole-blood samples (7-mL sodium heparin Vacutainer tubes) were taken from the jugular vein before dosing and at 0.5, 1, 2, 3, 4, 6, 8, 12, 24, and 28 hours after dosing. […] was harvested into tubes containing K2EDTA anticoagulant. Blood was maintained on wet ice prior to centrifugation to obtain plasma. Centrifugation began within 1 hour of collection, and samples were centrifuged at 2500 rpm for 15 minutes. Plasma was maintained on dry ice prior to storage at approximately −70° C. Plasma was analyzed using liquid chromatography with tandem mass spectrometry (LC/MS/MS). Crystalline Drug 1 was tested for comparison.

[3] = Log P of the drug; assay type: physicochemical; details: octanol/water; method not stated
Description: By hydrophobic is meant that the Log P of the drug is at least 4. The LogP of the drug may be at least 5, at least 6, or even at least 7. Log P, defined as the base 10 logarithm of the ratio of (1) the drug concentration in an octanol phase to (2) the drug concentration (in its unionized form if the drug may be ionized) in a water phase when the two phases are in equilibrium with each other, is a widely accepted measure of hydrophobicity. Log P may be measured experimentally or calculated using methods known in the art. When using a calculated value for Log P, the highest value calculated using any generally accepted method for calculating Log P is used. […] Preferably the Log P value is calculated by using the average value estimated using Crippen's, Viswanadhan's, and Broto's fragmentation methods.

[4] = Solubility of crystalline drug in 2 wt % NaTC/POPC; assay type: physicochemical; details: 2 wt % NaTC/POPC solution, fassgf or other biorelevant, thermodynamic from solid

| Compound | Free Drug [1] | AUC0-∞ [2] | Cmax [2] | Tmax [2] | logP [3] | solubility [4] |
| --- | --- | --- | --- | --- | --- | --- |
| CCOC(=O)N1c2ccc(C(F)(F)F)cc2[C@@H](N(Cc2cc(C(F)(F)F)cc(C(F)(F)F)c2)C(=O)OC)C[C@H]1CC [Drug 1, [2R,4S] 4-[(3,5-bis-trifluoromethyl-benzyl)-methoxycarbonyl-amino]-2-ethyl-6-trifluoromethyl-3,4-dihydro-2H-quinoline-1-carboxylic acid ethyl ester] | 15 µg/mL | <LOQ | <LOQ* | <LOQ | ~7.55 |  |
| CC[C@@H]1C[C@H](N(Cc2cc(C(F)(F)F)cc(C(F)(F)F)c2)C(C)=O)c2cc(C(F)(F)F)ccc2N1C(=O)OC(C)C [Drug 2, [2R,4S] 4-[acetyl-(3,5-bis-trifluoromethyl-benzyl)-amino]-2-ethyl-6-trifluoromethyl-3,4-dihydro-2H-quinoline-1-carboxylic acid isopropyl ester] |  |  |  |  | ~7.55 | ~8 µg/mL (≈ 13.4 µM) |
